Data published in patent US4826837A, “Cinnoline-carboxamides and process for their preparation” (Farmitalia Carlo Erba s.r.l., priority 1987, dated 1989).

Experiments:
TU5 tumoral cells = test: Macrophage cytotoxic activity towards TU5 tumoral cells (peritoneal cells of mice treated i.p., collected seven days later and incubated with tumor target cells); type: cell-based, mouse; details: peritoneal cells collected 7 days later, 48 h incubation with TU5 tumoral cells, colorimetric at 570 nm
Experimental: The experimental procedure to evaluate this activity is as follows: groups of 4 mice are treated i.p. with the tested compounds and then, seven days later, peritoneal cells are collected and plated for 2 hours at 37° C. After this period the walls are washed to eliminate the non adherent cells, tumor target cells are then added and the incubation is prolonged for 48 hours. At the end of this period the target cells viability is evaluated by a colorimetric method and quantified at 570 nm.
The following table summarizes the immunostimulating activity data of some compounds of the invention, obtained according to the hereabove experimental procedure, towards TU5 tumoral cells (Eur. J. Immunol. 1982, 12, 320)
Cytotoxic activity is calculated as % inhibition of TU5 tumoral cells growth using the following formula [formula] where
O.D.A.=optical density from cocultured TU5 and vehicol treated macrophages
O.D.B.=optical density from vehicol treated macrophages alone
O.D.C=optical density from cocultured TU5 and FCE compound treated macrophages
O.D.D=optical density from FCE compound treated macrophages alone.

[1] = Approximate acute toxicity (LD50) in the mouse, per os; details: in vivo, po, single administration of increasing doses, measured on seventh day after the day of treatment
Experimental: For example, the approximate acute toxicity (LD50) in the mouse of the compound 4-hydroxy-N-(2-pyridyl)-cinnoline-3-carboxamide determined per os with single administration of increasing doses and measured on the seventh day after the day of treatment, is higher than 800 mg/kg. Analogous toxicity data have been found for the other compounds of the invention.

| Compound | Macrophage cytotoxic activity (% inhibition) (TU5 tumoral cells; 50 mg/kg i.p. to mice) [%] | Macrophage cytotoxic activity (% inhibition) (TU5 tumoral cells; 10 mg/kg i.p. to mice) [%] | LD50 at 168 h [1] [mg/kg] |
| --- | --- | --- | --- |
| O=C(Nc1ccccc1)c1nnc2ccccc2c1O [FCE 25008, 4-hydroxy-N-phenyl-cinnoline-3-carboxamide] | 71 |  |  |
| O=C(Nc1ccccn1)c1nnc2ccccc2c1O [FCE 24089, 4-hydroxy-N-(2-pyridyl)-cinnoline-3-carboxamide] |  | 90 | > 800 |
| CN(C(=O)c1nnc2ccccc2c1O)c1ccccn1 [FCE 25051, 4-hydroxy-N-methyl-N-(2-pyridyl)-cinnoline-3-carboxamide] | 80 |  |  |
